The values below come from BindingDB's records for doi:10.1016/j.chembiol.2016.12.011 (Saarland University, 2017).

The test concerns the target Ezrin (Homo sapiens, UniProt P15311). Briefly: SPR Assay. To be noted: pH 5.5; 25 °C. How it is done: Recombinant ezrin (Hypermol) was diluted to […] in sodium acetate buffer (pH 5.5, 10 mM) immobilized for 350 s on a CM5 Sensor Chip (Biacore) by standard amine coupling to yield around 10,000 response units. The reference flow cell was prepared exactly as the ligand flow cell, although sodium acetate buffer only (pH 5.5, 10 mM) was used instead of recombinant ezrin. Binding interactions were monitored at 25 °C with a flow rate of […] in HBSEP/1% DMSO as running buffer. Disorazole A was injected at […]. Disorazole Z was injected at […]. The contact time for each compound was 120 s and the dissociation time 500 s. To rule out non-specific binding, a negative control protein was immobilized on a CM5 Sensor Chip (Biacore) by standard amine coupling: BSA (Sigma) was diluted to […] in sodium acetate buffer (pH 4.5, 10 mM) and immobilized for 90 s to yield around 5,000 response units. The reference flow cell was prepared with sodium acetate buffer (pH 4.5).

By Kd is commonly meant the equilibrium constant for the complex coming apart. The low end stands for higher affinity, the high end for lower affinity.

Sequence of Ezrin (P15311 whole entry): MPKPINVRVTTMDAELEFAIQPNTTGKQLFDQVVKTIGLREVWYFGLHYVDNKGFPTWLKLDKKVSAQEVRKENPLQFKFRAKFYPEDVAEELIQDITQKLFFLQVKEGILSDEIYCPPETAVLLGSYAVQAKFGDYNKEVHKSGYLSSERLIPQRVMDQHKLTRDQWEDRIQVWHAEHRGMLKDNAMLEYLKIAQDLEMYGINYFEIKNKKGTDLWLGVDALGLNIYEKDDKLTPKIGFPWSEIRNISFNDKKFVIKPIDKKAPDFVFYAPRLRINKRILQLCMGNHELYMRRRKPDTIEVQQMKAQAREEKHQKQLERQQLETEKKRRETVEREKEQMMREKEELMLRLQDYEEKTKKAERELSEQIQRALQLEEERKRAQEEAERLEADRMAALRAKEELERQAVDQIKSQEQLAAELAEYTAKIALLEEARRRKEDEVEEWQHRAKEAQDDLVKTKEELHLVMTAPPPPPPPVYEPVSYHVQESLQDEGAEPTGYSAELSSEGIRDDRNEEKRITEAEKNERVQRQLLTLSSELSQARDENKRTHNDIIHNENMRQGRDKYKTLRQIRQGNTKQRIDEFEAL

`C/C=C/[C@H](O)C(C)(C)[C@@H]1CCC[C@H]2O[C@H]2CC[C@@H]2O[C@@H]2c2nc(co2)C(=O)O[C@H](C(C)(C)[C@@H](O)/C=C/C)C\C=C/C(C)=C\C=C/[C@H](OC)Cc2nc(co2)C(=O)O1` [Disorazole A] gave a Kd of 22 µM.
In turn, `C/C=C/[C@H](O)C(C)(C(=O)OC)[C@@H]1C\C=C/C=C/C=C/c2nc(co2)C(=O)O[C@H](C(C)(C(=O)OC)[C@@H](O)/C=C/C)C\C=C/C=C/C=C/c2nc(co2)C(=O)O1` (some centres not stated) [Disorazole Z] had a Kd of 74.9 µM.
